In US20260083789A1, “FORMULATION FOR STIMULATING HAIR GROWTH AND IMPROVING QUALITY AND METHOD OF PREPARATION OF THE SAME” (ARJUNA NATURAL PRIVATE LIMITED, priority 2022, published 2026):

What was measured:
[1] = test system: Human dermal fibroblasts (HDFa) cells; assay: MTT assay, cell viability / proliferation; format: cell-based; conditions: HDFs
Experimental: Human dermal fibroblasts (HDFa) cells were maintained in DMEM high glucose media (Himedia) with 10% FBS and 40 units/ml of penicillin & 40 μg/mL of streptomycin (Thermo Fisher) in 37° C. humidified chamber with 5% CO2. Cells were passaged after every 2-3 days using trypsin-EDTA.
Cells were trypsinized, centrifuged and resuspended in culture medium. Cells and then counted by trypan blue method using haemocytometer and plated at 5000 cells per 50 μl into wells of a 96 well microtiter plate. The cells were then incubated overnight under conditions appropriate for the cell line for adherence. […] 10 μl MTT reagent was then added to each well, after respective time period followed by incubation for 4 hours. After 4 hours, when the purple precipitate was clearly visible under the microscope, supernatant was removed carefully by pipette and 100 μl of solubilization solution (DMSO) was added to all wells. The plate was shaken softly for 20 minutes in the dark at room temperature. Then, the absorbance was taken of each well, including the blanks, at 570 nm with reference wavelength at 630 nm in a microtiter plate reader. The average values were determined from triplicate readings and subtracted the average value for the blank.

HDFs = assay: In vitro cell based scratch assay (wound healing); parameters: species or system human; conditions: negative control 89.798 %
Experimental: In vitro cell based scratch assay is one of the most apt and economic procedures for preliminary examination of wound healing potential of any medicinal extract. […] Cell migration was monitored at 0 hour, 24 hours and 48 hours and wound closure distance was calculated by Image J software.

Nc1cc(N2CCCCC2)nc(N)[n+]1[O-] [Minoxidil, 2,4-diamino-6 piperidino-pyrimidine-3-oxide]
time at which cell proliferation peaked [1]: 72 h | time to show efficacy / increase the rate of cell proliferation [1]: 48 h | cell proliferation in relation to concentration ([1]; in contrast to the extract): increased cell proliferation at lower concentrations | closure of the gap created by the scratch (HDFs): 89.358%
